From ChEMBL document CHEMBL5584232, “Hijacking monopolar spindle 1 (MPS1) for various cancer types by small molecular inhibitors: Deep insights from a decade of research and patents” (Eur J Med Chem, 2024)

Legend:
[1] = molecular target: Mitogen-activated protein kinase 8 (Homo sapiens, UniProt P45983); test: Inhibition of JNK1 (unknown origin) using ATF2 as substrate after 1 hr by Lanthascreen TR-FRET assay
A549 [2] = test: Antiproliferative activity against human A549 cells assessed as reduction in cell growth incubated for 48 hrs by MTT assay; type: functional, cell-based; details: A549, 48 h
[3] = Oral bioavailability in rat at 1 mg/kg; type: ADME, organism-based; details: in vivo
[4] = Clearance in Sprague-Dawley rat at 1 mg/kg, iv measured after 24 hrs by LC-MS/MS analysis; type: ADME, organism-based; details: in vivo
[5] = Clearance in rat at 1 mg/kg, po; type: ADME, organism-based; details: in vivo
HCT-116 [6] = test: Antitumor activity against human HCT-116 cells xenografted in athymic nude BALB/c mouse assessed as reduction in tumor growth at 12.5 mg/kg, ip administered every other day and measured every other day for 16 days; type: functional; details: HCT-116, 384 h, time 16 day, read-out: TGI
CYP450 = CYP450 (Homo sapiens, UniProt P04798+P05177+P05181+P08684+P10632+P10635+P11509+P11712+P13584+P20813+P20815+P20853+P24462+P24903+P33260+P33261+P51589+P78329+P98187+Q02928+Q08477+Q16678+Q16696+Q5TCH4+Q6VVX0+Q7Z449+Q8TAV3+Q96SQ9+Q9HB55); test: Inhibition of CYP450 (unknown origin); type: ADME, protein assay
MDA-MB-468 = test: Growth inhibition of human MDA-MB-468 cells incubated for 48 hrs by SRB assay; type: functional
HCT-116 [7] = test: Growth inhibition of human HCT-116 cells incubated for 48 hrs by SRB assay; type: functional
A549 [8] = test: Growth inhibition of human A549 cells incubated for 48 hrs by SRB assay; type: functional
CAL-51 = test: Antiproliferative activity against human CAL-51 cells assessed as inhibition of cell growth incubated for 72 hrs by MTT assay; type: functional, cell-based; details: CAL-51, 72 h
[9] = molecular target: T1, Dual specificity protein kinase TTK (Homo sapiens, UniProt P33981); test: Inhibition of human recombinant TTK expressed in Escherichia coli Rossetta 2 (DE3) incubated for 1 hr by TR-FRET assay
T1 sequence (P33981 whole entry): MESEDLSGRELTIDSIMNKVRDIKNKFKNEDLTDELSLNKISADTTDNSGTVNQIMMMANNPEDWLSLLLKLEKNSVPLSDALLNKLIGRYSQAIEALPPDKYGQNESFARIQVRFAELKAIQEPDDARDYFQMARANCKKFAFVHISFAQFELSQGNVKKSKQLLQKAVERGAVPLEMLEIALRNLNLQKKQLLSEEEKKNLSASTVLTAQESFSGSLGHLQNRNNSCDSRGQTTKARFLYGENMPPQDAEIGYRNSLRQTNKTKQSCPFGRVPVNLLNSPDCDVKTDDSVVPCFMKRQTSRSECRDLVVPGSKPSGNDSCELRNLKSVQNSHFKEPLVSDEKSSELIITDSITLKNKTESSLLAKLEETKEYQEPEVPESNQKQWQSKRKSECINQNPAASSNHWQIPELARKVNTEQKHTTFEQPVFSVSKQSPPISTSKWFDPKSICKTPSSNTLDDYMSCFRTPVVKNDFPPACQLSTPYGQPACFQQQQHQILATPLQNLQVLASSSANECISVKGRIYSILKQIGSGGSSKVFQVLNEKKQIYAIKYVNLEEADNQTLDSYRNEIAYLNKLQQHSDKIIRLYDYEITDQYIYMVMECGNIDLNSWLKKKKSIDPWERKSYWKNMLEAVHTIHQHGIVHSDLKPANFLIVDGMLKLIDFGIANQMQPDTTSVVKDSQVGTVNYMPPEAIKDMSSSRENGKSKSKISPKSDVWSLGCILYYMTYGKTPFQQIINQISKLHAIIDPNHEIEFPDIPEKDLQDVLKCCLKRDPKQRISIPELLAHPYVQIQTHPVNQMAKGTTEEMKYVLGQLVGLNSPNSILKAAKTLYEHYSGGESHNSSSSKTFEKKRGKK

Chain of Mitogen-activated protein kinase 8 (P45983 whole entry): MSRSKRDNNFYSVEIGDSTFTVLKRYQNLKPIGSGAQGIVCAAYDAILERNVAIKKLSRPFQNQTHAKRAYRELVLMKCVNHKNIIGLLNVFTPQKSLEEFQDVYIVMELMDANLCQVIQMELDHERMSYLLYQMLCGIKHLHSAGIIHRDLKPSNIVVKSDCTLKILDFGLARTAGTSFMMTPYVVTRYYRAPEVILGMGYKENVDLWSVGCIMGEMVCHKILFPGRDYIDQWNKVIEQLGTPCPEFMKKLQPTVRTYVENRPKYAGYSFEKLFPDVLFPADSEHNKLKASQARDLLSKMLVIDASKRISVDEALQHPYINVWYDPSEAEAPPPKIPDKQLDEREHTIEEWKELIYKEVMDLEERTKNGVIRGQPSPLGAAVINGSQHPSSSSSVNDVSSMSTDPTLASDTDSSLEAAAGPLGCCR

Q: For `CCOc1ccc2[nH]nc(-c3ccc(NC(C)=O)cc3)c2c1`, which IC50 [1] is on record?
A: The IC50 was 28 nM.

Q: Which IC50 [1] does the source give for `CCOc1ccc2[nH]nc(-c3cccc(NC(C)=O)c3)c2c1` here?
A: The IC50 was 150 nM.

Q: With `CCOc1cc2c(-c3cccc(S(N)(=O)=O)c3)n[nH]c2cc1-c1cn[nH]c1` as the compound, how does the IC50 (A549 [2]) read?
A: Its IC50 is 386 nM.

Q: Which IC50 (A549 [2]) does the source give for `CCOc1cc2c(-c3cccc(S(N)(=O)=O)c3)n[nH]c2cc1-c1cnn(C)c1` here?
A: The IC50 was 386 nM.

Q: With `CCOc1cc2c(-c3ccc(C)c(S(N)(=O)=O)c3)n[nH]c2cc1-c1cnn(C)c1` as the compound, how does the IC50 (A549 [2]) read?
A: The IC50 was 386 nM.

Q: Which bioavailability [3] does the source give for `Cn1cc(-c2cc3[nH]nc(-c4cccc(S(N)(=O)=O)c4)c3cc2OC2CCCCC2)cn1` here?
A: Its bioavailability is 17%.

Q: For `Cn1cc(-c2cc3[nH]nc(-c4cccc(S(N)(=O)=O)c4)c3cc2NC2CCCCC2)cn1`, which clearance [4] is on record?
A: Its clearance is 33 mL/min/kg.

Q: For `CC(=O)Nc1cccc(-c2n[nH]c3cc(-c4cnn(C)c4)c(NC4CCCCC4)cc23)c1`, which CL/F [5] is on record?
A: The CL/F was 33 mL/min/kg.

Q: For `CCc1ccccc1C(C(=O)Nc1ccc2[nH]nc(-c3cccc(S(N)(=O)=O)c3)c2c1)N(C)C` (stereo not given), which inhibition in vivo at 12.5 mg/kg (HCT-116 [6]) is on record?
A: The inhibition in vivo at 12.5 mg/kg was 10%.

Q: What about the IC50 (CYP450) of the same compound?
A: The IC50 was 700 nM.

Q: Which results are given for `NS(=O)(=O)c1cccc(-c2n[nH]c3ccc(NC(=O)C(c4ccsc4)N4CCCC4)cc23)c1` (stereo not given)?
A: inhibition in vivo at 12.5 mg/kg (HCT-116 [6]): 66%; IC50 (CYP450): 900 nM; GI50 (MDA-MB-468): 70 nM; GI50 (HCT-116 [7]): 100 nM; GI50 (A549 [8]): 100 nM

Q: For `CNC(=O)c1ccc(Nc2nc(OC3CCCC3)c3c(-c4cc[nH]n4)c[nH]c3n2)c(OC)c1`, which IC50 (CAL-51) is on record?
A: The IC50 was 400 nM.

Q: For `COc1cc(C(=O)NC(C)(C)CO)ccc1Nc1nc(OC2CCCC2)c2c(-c3ccc4nc(C)oc4c3)c[nH]c2n1`, which IC50 (CAL-51) is on record?
A: Its IC50 is 100 nM.

Q: With `COc1cc(C(=O)NCC(C)(C)O)ccc1Nc1nc(OC2CCCC2)c2c(-c3ccc4nc(C)oc4c3)c[nH]c2n1` as the compound, how does the IC50 (CAL-51) read?
A: The IC50 was 60 nM.

Q: Which IC50 (CAL-51) does the source give for `CNC(=O)c1ccc(Nc2nc(O[C@H]3CCOC3)c3c(-c4ccc5nc(C)oc5c4)c[nH]c3n2)c(OC)c1` here?
A: The IC50 was 18 nM.

Q: Which IC50 [9] does the source give for `COc1cc(N2CCC(O)CC2)ccc1Nc1nc(Nc2ccccc2S(=O)(=O)C(C)C)c2nc[nH]c2n1` here?
A: The IC50 was 15 nM.
